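Cells were grown in 96-well plates and exposed to each compound for 48 hours at five concentrations; endpoints were interpolated linearly between bracketing concentrations, or set to the highest concentration if not reached. The concentration for 50% growth inhibition is given as GI50. The concentration for full growth arrest is given as TGI.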
Tests used:
Experiment in all cases: inhibition of tumour cell growth, NCI panel, 48 h
HT29 colon = tested on: HT29 colon
SF-295 CNS = tested on: SF-295 CNS
HCT-116 colon = tested on: HCT-116 colon
RXF 393 renal = tested on: RXF 393 renal
SK-MEL-5 melanoma = tested on: SK-MEL-5 melanoma
OVCAR-5 ovarian = tested on: OVCAR-5 ovarian
KM12 colon = tested on: KM12 colon
HOP-92 NSCLC = tested on: HOP-92 NSCLC
MDA-MB-435 = tested on: MDA-MB-435
NCI/ADR-RES ovarian = tested on: NCI/ADR-RES ovarian

COc1cc2c(c(OC)c1OC)-c1ccc(SC)c(=O)cc1[C@@H](NC(=O)c1ccc(Cl)cc1)CC2
TGI (HT29 colon): 11.2 µM | TGI (SF-295 CNS): < 0.01 µM | TGI (HCT-116 colon): 11.3 µM | TGI (RXF 393 renal): 19.4 µM | TGI (SK-MEL-5 melanoma): < 0.01 µM

CC1CC[C@]2(C(=O)O)CCC3(C)C(=CCC4[C@@]5(C)CC[C@H](OS(=O)(=O)c6ccccc6)C(C)(C)C5CC[C@]43C)[C@@H]2[C@H]1C (stereo partly specified)
TGI (OVCAR-5 ovarian): > 100 µM | TGI (HT29 colon): > 100 µM | TGI (SF-295 CNS): > 100 µM | TGI (HCT-116 colon): > 100 µM | TGI (KM12 colon): > 100 µM | TGI (HOP-92 NSCLC): > 100 µM | TGI (SK-MEL-5 melanoma): > 100 µM

CCOC(=O)[C@H]1Nc2ccccc2C2c3ccccc3CC21 (stereo partly specified)
TGI (OVCAR-5 ovarian): > 100 µM | TGI (HT29 colon): 37.2 µM | TGI (SF-295 CNS): > 100 µM | TGI (HCT-116 colon): > 100 µM | TGI (KM12 colon): > 100 µM | TGI (RXF 393 renal): 31.1 µM | TGI (SK-MEL-5 melanoma): 54.6 µM

Cc1nc(-n2nc(-c3ccccc3)cc2-c2ccccc2)sc1C(/C=C/c1ccc([N+](=O)[O-])cc1)=N/NC(=O)c1ccncc1
TGI (OVCAR-5 ovarian): > 100 µM | TGI (HT29 colon): > 100 µM | TGI (SF-295 CNS): > 100 µM | TGI (HCT-116 colon): 21.8 µM | TGI (KM12 colon): 22.4 µM | TGI (HOP-92 NSCLC): 54.8 µM | TGI (RXF 393 renal): 76.6 µM | TGI (SK-MEL-5 melanoma): 63.7 µM

N#CC1C=Cc2ccccc2N1C(=O)Oc1ccccc1 (stereo unspecified)
TGI (MDA-MB-435): 58.7 µM | TGI (OVCAR-5 ovarian): > 100 µM | TGI (HT29 colon): > 100 µM | TGI (HCT-116 colon): > 100 µM | TGI (KM12 colon): > 100 µM | TGI (HOP-92 NSCLC): > 100 µM | TGI (RXF 393 renal): > 100 µM | TGI (SK-MEL-5 melanoma): > 100 µM | TGI (NCI/ADR-RES ovarian): > 100 µM

COC(=O)/C(=N/NC(N)=O)C(C(=O)OC)C(=O)C(=O)Nc1ccc(Cl)cc1 (stereo unspecified)
TGI (OVCAR-5 ovarian): > 100 µM | TGI (HT29 colon): > 100 µM | TGI (SF-295 CNS): > 100 µM | TGI (HCT-116 colon): > 100 µM | TGI (KM12 colon): > 100 µM | TGI (HOP-92 NSCLC): > 100 µM | TGI (RXF 393 renal): > 100 µM | TGI (SK-MEL-5 melanoma): > 100 µM

COc1cccc(/C=C/C(=O)c2cc3c(N)c(C(=O)Nc4cccc5ccccc45)sc3nc2C)c1
GI50 (OVCAR-5 ovarian): 1.42 µM | TGI (OVCAR-5 ovarian): 4.6 µM | GI50 (HT29 colon): 0.65 µM | TGI (HT29 colon): 2.06 µM | GI50 (SF-295 CNS): 1.67 µM | TGI (SF-295 CNS): 23.1 µM | GI50 (HCT-116 colon): 0.619 µM | TGI (HCT-116 colon): 1.6 µM | GI50 (KM12 colon): 1.4 µM | TGI (KM12 colon): 4.77 µM | GI50 (HOP-92 NSCLC): 0.953 µM | TGI (HOP-92 NSCLC): 4.9 µM | GI50 (RXF 393 renal): 0.803 µM | TGI (RXF 393 renal): 1.9 µM | GI50 (SK-MEL-5 melanoma): 1.21 µM | TGI (SK-MEL-5 melanoma): 3.09 µM | GI50 (NCI/ADR-RES ovarian): 1.33 µM | TGI (NCI/ADR-RES ovarian): 5.75 µM

CCOC(=O)C1COc2cc(-c3cc(=O)c4ccccc4o3)ccc2O1 (stereo unspecified)
TGI (OVCAR-5 ovarian): > 100 µM | TGI (HT29 colon): 56.3 µM | TGI (SF-295 CNS): > 100 µM | TGI (HCT-116 colon): > 100 µM | TGI (KM12 colon): > 100 µM | TGI (HOP-92 NSCLC): 39.3 µM | TGI (RXF 393 renal): > 100 µM | TGI (SK-MEL-5 melanoma): > 100 µM

O=c1cc(-c2ccccn2)[nH]c2ccc(Cl)cc12
TGI (OVCAR-5 ovarian): > 100 µM | TGI (HT29 colon): > 100 µM | GI50 (SF-295 CNS): 51.5 µM | TGI (SF-295 CNS): > 100 µM | GI50 (HCT-116 colon): 26 µM | TGI (HCT-116 colon): > 100 µM | TGI (KM12 colon): > 100 µM | TGI (HOP-92 NSCLC): > 100 µM | GI50 (RXF 393 renal): 34 µM | TGI (RXF 393 renal): > 100 µM | GI50 (SK-MEL-5 melanoma): 26.6 µM | TGI (SK-MEL-5 melanoma): > 100 µM

O=C(Nc1cccc(NC(=O)c2cc(=O)c3ccccc3o2)n1)c1cc(=O)c2ccccc2o1
TGI (OVCAR-5 ovarian): > 100 µM | TGI (HCT-116 colon): > 100 µM | TGI (KM12 colon): > 100 µM | TGI (HOP-92 NSCLC): 52.7 µM | TGI (RXF 393 renal): > 100 µM | TGI (SK-MEL-5 melanoma): > 100 µM

CN(C=O)/C=C/c1cc(O)ccc1O
TGI (OVCAR-5 ovarian): 63.9 µM | TGI (HT29 colon): 49.2 µM | TGI (SF-295 CNS): 47.7 µM | TGI (HCT-116 colon): 48.9 µM | TGI (KM12 colon): > 100 µM | TGI (HOP-92 NSCLC): 34.8 µM | TGI (RXF 393 renal): 34.1 µM | TGI (SK-MEL-5 melanoma): > 66.9 µM

CN1CCc2c1nc(-c1ccc([N+](=O)[O-])cc1)c1c2N(C)CC1
TGI (OVCAR-5 ovarian): > 100 µM | TGI (HT29 colon): > 100 µM | TGI (SF-295 CNS): > 100 µM | TGI (HCT-116 colon): > 100 µM | TGI (KM12 colon): > 100 µM | TGI (HOP-92 NSCLC): > 100 µM | TGI (RXF 393 renal): > 100 µM | TGI (SK-MEL-5 melanoma): > 100 µM

CC(=O)C1C(=O)N(C(C)C)C[C@@H]2CCC(=O)C[C@H]12 (stereo partly specified)
TGI (HT29 colon): > 100 µM | TGI (SF-295 CNS): > 100 µM | TGI (HCT-116 colon): > 100 µM | TGI (KM12 colon): > 100 µM | TGI (HOP-92 NSCLC): > 100 µM | TGI (RXF 393 renal): > 100 µM | TGI (SK-MEL-5 melanoma): > 100 µM

S=c1nc(-c2ccnc(-c3nc(=S)[nH][nH]3)c2)[nH][nH]1
TGI (OVCAR-5 ovarian): > 100 µM | TGI (HT29 colon): > 100 µM | TGI (SF-295 CNS): > 100 µM | TGI (HCT-116 colon): > 100 µM | TGI (KM12 colon): > 100 µM | TGI (RXF 393 renal): > 100 µM | TGI (SK-MEL-5 melanoma): > 100 µM

N[C@@H]1CCCC[C@@H]1N.O=P([O-])([O-])CN(CP(=O)([O-])[O-])CP(=O)([O-])[O-].[Pt+2]
GI50 (HT29 colon): > 100 µM | TGI (HT29 colon): > 100 µM | GI50 (SF-295 CNS): > 100 µM | TGI (SF-295 CNS): > 100 µM | GI50 (HCT-116 colon): > 100 µM | TGI (HCT-116 colon): > 100 µM | GI50 (KM12 colon): > 100 µM | TGI (KM12 colon): > 100 µM | GI50 (HOP-92 NSCLC): > 100 µM | TGI (HOP-92 NSCLC): > 100 µM | GI50 (SK-MEL-5 melanoma): > 100 µM | TGI (SK-MEL-5 melanoma): > 100 µM

CCSC(SCC)=C1C(=O)N(c2ccccc2)N=C1C
TGI (OVCAR-5 ovarian): 29.9 µM | TGI (HT29 colon): 39.4 µM | TGI (SF-295 CNS): 73.5 µM | TGI (HCT-116 colon): 28.3 µM | TGI (KM12 colon): 35.3 µM | TGI (HOP-92 NSCLC): 20.1 µM | TGI (RXF 393 renal): 5.89 µM | TGI (SK-MEL-5 melanoma): 33.1 µM

COc1cc([N+](=O)[O-])c2ncccc2c1[N+](=O)[O-]
GI50 (MDA-MB-435): 3.9 µM | TGI (MDA-MB-435): 15.1 µM | GI50 (OVCAR-5 ovarian): 16.4 µM | TGI (OVCAR-5 ovarian): 31.1 µM | GI50 (HT29 colon): 2.28 µM | TGI (HT29 colon): 5.52 µM | GI50 (SF-295 CNS): 4.51 µM | TGI (SF-295 CNS): 14.3 µM | GI50 (HCT-116 colon): 3.47 µM | TGI (HCT-116 colon): 11.9 µM | GI50 (KM12 colon): 2.98 µM | TGI (KM12 colon): 10.5 µM | GI50 (RXF 393 renal): 4.37 µM | TGI (RXF 393 renal): 17.5 µM | GI50 (SK-MEL-5 melanoma): 12.6 µM | TGI (SK-MEL-5 melanoma): 25.3 µM | GI50 (NCI/ADR-RES ovarian): 2.8 µM | TGI (NCI/ADR-RES ovarian): 10.8 µM

CCOc1cc(-c2ccc[nH]2)[nH]c1/C=C1\N=C(C)C(C(=O)OC)=C1C
GI50 (MDA-MB-435): 0.0325 µM | TGI (MDA-MB-435): 1.05 µM | GI50 (OVCAR-5 ovarian): 0.0552 µM | TGI (OVCAR-5 ovarian): 1.68 µM | GI50 (HT29 colon): < 0.0123 µM | TGI (HT29 colon): 1.06 µM | GI50 (HCT-116 colon): 0.0188 µM | TGI (HCT-116 colon): 1.08 µM | GI50 (KM12 colon): 0.0251 µM | TGI (KM12 colon): 1.35 µM | GI50 (HOP-92 NSCLC): 0.0148 µM | TGI (HOP-92 NSCLC): 0.049 µM | GI50 (RXF 393 renal): 0.0219 µM | TGI (RXF 393 renal): 0.0881 µM | GI50 (SK-MEL-5 melanoma): < 0.0133 µM | TGI (SK-MEL-5 melanoma): 0.0293 µM | GI50 (NCI/ADR-RES ovarian): 0.0432 µM | TGI (NCI/ADR-RES ovarian): 1.47 µM

CCCCCCCCCCCCCc1nn[nH]n1
TGI (OVCAR-5 ovarian): 33 µM | TGI (HT29 colon): 33 µM | TGI (SF-295 CNS): 34.6 µM | TGI (HCT-116 colon): 31.7 µM | TGI (KM12 colon): 32.9 µM | TGI (HOP-92 NSCLC): 29.3 µM | TGI (RXF 393 renal): 43.4 µM | TGI (SK-MEL-5 melanoma): 32.5 µM

COc1nc(NC2OC(COC(C)=O)C(OC(C)=O)C(OC(C)=O)C2OC(C)=O)c(-c2csc(N)n2)c(=O)n1C (stereo unspecified)
TGI (OVCAR-5 ovarian): > 100 µM | TGI (HT29 colon): > 100 µM | TGI (SF-295 CNS): > 100 µM | TGI (HCT-116 colon): > 100 µM | TGI (KM12 colon): > 100 µM | TGI (HOP-92 NSCLC): > 100 µM | TGI (SK-MEL-5 melanoma): > 100 µM

COc1cc2cc3c4c(cc(OC)c(OC)c4c2cc1OC)CCN3C(=O)CCC(=O)NCCCN(C)C
TGI (HT29 colon): 51.7 µM | TGI (SF-295 CNS): > 100 µM | TGI (HCT-116 colon): > 100 µM | TGI (KM12 colon): > 100 µM | TGI (HOP-92 NSCLC): 64.6 µM | TGI (RXF 393 renal): > 100 µM | TGI (SK-MEL-5 melanoma): 28.2 µM
